Test results as given in patent US20220056018A1, “SREBP INHIBITORS COMPRISING A THIOPHENE CENTRAL RING” (Capulus Therapeutics, LLC, priority 2019, published 2022).

Assays:
Assay in all cases: Cancer cell growth inhibition
Format in all cases: cell-based
[1] = tested on: MV4-11; conditions: Homo sapiens; MV4-11 (hematological), 72 hr treatment
Protocol: (§1) The ability of select compounds to inhibit cell growth in various cancer cell lines are evaluated. […] The cell lines shown in Table 2 have reduced growth by at least 50% at 10 uM or lower over 72 hr treatment in growth media. The cell lines shown in Table 3 have reduced growth by at least 50% with an IC50 greater than 10 uM.
(§2) Six 10-fold compound dilutions are prepared in DMSO (e.g. 10 mM, 1 mM, 100 uM, 10 uM, 1 uM, and 0.1 uM). Single data points are acquired for each concentration. The final concentration of DMSO is 0.1%. The duration of the treatment is 72 hr. Growth inhibition is measured using Sulforhodamine B in a protein staining assay. Activity of the agents is determined by evaluation the following parameters: IC50, GI50, IC10, TGI, LC50, IC90, and GI90 (where these values can be calculated).

[2] = tested on: A204; conditions: Homo sapiens; A204 (muscle), 72 hr treatment
Protocol: as §1, §2

[3] = tested on: RAMOS; conditions: Homo sapiens; RAMOS (hematological), 72 hr treatment
Protocol: as §1, §2

[4] = tested on: RDES; conditions: RD-ES; RDES (bone), 72 hr treatment
Protocol: as §1, §2

[5] = tested on: SU-DHL-6; conditions: Homo sapiens; SU-DHL-6 (hematological), 72 hr treatment
Protocol: as §1, §2

[6] = tested on: A375; conditions: Homo sapiens, A-375; A375 (skin), 72 hr treatment
Protocol: as §1, §2

[7] = tested on: ASPC1; conditions: Homo sapiens; ASPC1 (pancreas), 72 hr treatment
Protocol: as §1, §2

[8] = tested on: SKMEL28; conditions: Homo sapiens, SK-MEL-28; SKMEL28 (skin), 72 hr treatment
Protocol: as §1, §2

[9] = tested on: OVCAR4; conditions: Homo sapiens, OVCAR-4; OVCAR4 (ovary), 72 hr treatment
Protocol: as §1, §2

[10] = tested on: A549; conditions: Homo sapiens; A549 (lung), 72 hr treatment
Protocol: as §1, §2

[11] = tested on: SKLMS1; conditions: Homo sapiens, SK-LMS-1; SKLMS1 (uterus), 72 hr treatment
Protocol: as §1, §2

[12] = tested on: BT20; conditions: Homo sapiens, BT-20; BT20 (breast), 72 hr treatment
Protocol: as §1, §2

[13] = tested on: SAOS2; conditions: Homo sapiens, SAOS-2; SAOS2 (bone), 72 hr treatment
Protocol: as §1, §2

[14] = tested on: PANC1; conditions: Homo sapiens, PANC-1; PANC1 (pancreas), 72 hr treatment
Protocol: as §1, §2

[15] = tested on: NCIH292; conditions: Homo sapiens, NCI-H292; NCIH292 (lung), 72 hr treatment
Protocol: as §1, §2

[16] = tested on: DLD1; conditions: Homo sapiens, DLD-1; DLD1 (colon), 72 hr treatment
Protocol: as §1, §2

[17] = tested on: SF295; conditions: Homo sapiens, SF-295; SF295 (brain), 72 hr treatment
Protocol: as §1, §2

[18] = tested on: C33A; conditions: Homo sapiens, C-33-A; C33A (endometrial), 72 hr treatment
Protocol: as §1, §2

[19] = tested on: RD; conditions: Homo sapiens; RD (muscle), 72 hr treatment
Protocol: as §1, §2

[20] = tested on: A431; conditions: Homo sapiens, A-431; A431 (skin), 72 hr treatment
Protocol: as §1, §2

[21] = tested on: CASKI; conditions: Homo sapiens, Ca-Ski; CASKI (endometrial), 72 hr treatment
Protocol: as §1, §2

[22] = tested on: SW620; conditions: Homo sapiens, SW-620; SW620 (colon), 72 hr treatment
Protocol: as §1, §2

[23] = tested on: JAR; conditions: JAR (placenta), 72 hr treatment
Protocol: as §1, §2

[24] = tested on: HS729; conditions: HS729 (muscle), 72 hr treatment
Protocol: as §1, §2

[25] = tested on: MINO; conditions: Homo sapiens; MINO (hematological), 72 hr treatment
Protocol: as §1, §2

[26] = tested on: LOVO; conditions: Homo sapiens; LOVO (colon), 72 hr treatment
Protocol: as §1, §2

[27] = tested on: HT1080; conditions: Homo sapiens, HT-1080; HT1080 (connective tissue), 72 hr treatment
Protocol: as §1, §2

[28] = tested on: NCIH82; conditions: Homo sapiens, NCI-H82; NCIH82 (lung), 72 hr treatment
Protocol: as §1, §2

[29] = tested on: HEK293; conditions: Homo sapiens; HEK293 (kidney), 72 hr treatment
Protocol: as §1, §2

[30] = tested on: 5637; conditions: 5637 (bladder), 72 hr treatment
Protocol: as §1, §2

[31] = tested on: PBMC; conditions: PBMC (hematological), 72 hr treatment
Protocol: as §1, §2

[32] = tested on: 22RV1; conditions: Homo sapiens; 22RV1 (prostate), 72 hr treatment
Protocol: as §1, §2

| IC50 [1] [µM] | IC50 [2] [µM] | IC50 [3] [µM] | IC50 [4] [µM] | IC50 [5] [µM] | IC50 [6] [µM] | IC50 [7] [µM] | IC50 [8] [µM] | IC50 [9] [µM] | IC50 [10] [µM] | IC50 [11] [µM] | IC50 [12] [µM] | IC50 [13] [µM] | IC50 [14] [µM] | IC50 [15] [µM] | IC50 [16] [µM] | IC50 [17] [µM] | IC50 [18] [µM] | IC50 [19] [µM] | IC50 [20] [µM] | Compound | further results |
| --- | --- | --- | --- | --- | --- | --- | --- | --- | --- | --- | --- | --- | --- | --- | --- | --- | --- | --- | --- | --- | --- |
| < 10 | < 10 | < 10 | < 10 | < 10 | > 10 | < 10 | < 10 | < 10 | < 10 | > 10 | < 10 | < 10 | < 10 | < 10 | < 10 | < 10 | < 10 | > 10 | > 10 | CS(=O)(=O)Nc1ccc(-c2cc(-c3ccnc4c3OCCO4)cs2)c(Cl)c1 [Compound I-9017, N-(3-chloro-4-(4-(2,3-dihydro-[1,4]dioxino[2,3-b]pyridin-8-yl)thiophen-2-yl)phenyl)methanesulfonamide] | IC50 [21]: > 10 µM; IC50 [22]: < 10 µM; IC50 [23]: < 10 µM; IC50 [24]: > 10 µM; IC50 [25]: < 10 µM; IC50 [26]: < 10 µM; IC50 [27]: < 10 µM; IC50 [28]: < 10 µM; IC50 [29]: < 10 µM; IC50 [30]: < 10 µM; IC50 [31]: > 10 µM; IC50 [32]: < 10 µM |
| < 10 | > 10 | < 10 | > 10 | < 10 | > 10 | < 10 | < 10 | < 10 | < 10 | > 10 | > 10 | > 10 | < 10 | < 10 | < 10 | < 10 | < 10 | > 10 | > 10 | CC(C)(O)Cc1cc(-c2csc(-c3ccc(NS(C)(=O)=O)cc3Cl)c2)ccn1 [Compound I-9004, N-(3-chloro-4-(4-(2-(2-hydroxy-2-methylpropyl)pyridin-4-yl)thiophen-2-yl)phenyl)methanesulfonamide] | IC50 [21]: > 10 µM; IC50 [22]: > 10 µM; IC50 [23]: < 10 µM; IC50 [24]: > 10 µM; IC50 [25]: < 10 µM; IC50 [26]: < 10 µM; IC50 [27]: < 10 µM; IC50 [28]: < 10 µM; IC50 [29]: < 10 µM; IC50 [30]: > 10 µM; IC50 [31]: > 10 µM; IC50 [32]: < 10 µM |
| < 10 | < 10 | < 10 | > 10 | < 10 | > 10 | < 10 | < 10 | < 10 | < 10 | > 10 | > 10 | > 10 | < 10 | < 10 | < 10 | < 10 | < 10 | > 10 | > 10 | CC(C)(CO)c1cc(-c2csc(-c3ccc(NS(C)(=O)=O)cc3Cl)c2)ccn1 [Compound I-8909, N-(3-chloro-4-(4-(2-(1-hydroxy-2-methylpropan-2-yl)pyridin-4-yl)thiophen-2-yl)phenyl)methanesulfonamide] | IC50 [21]: > 10 µM; IC50 [22]: > 10 µM; IC50 [23]: < 10 µM; IC50 [24]: > 10 µM; IC50 [25]: < 10 µM; IC50 [26]: < 10 µM; IC50 [27]: < 10 µM; IC50 [28]: < 10 µM; IC50 [29]: < 10 µM; IC50 [30]: < 10 µM; IC50 [31]: > 10 µM; IC50 [32]: < 10 µM |
